Read-outs that look alike come from different tables or passages of the source.
What was measured:
[1] = target: stromelysin (Homo sapiens, UniProt P08254); experiment: Assay of Stromelysin Inhibition Activity (fluorogenic substrate hydrolysis); format: biochemical; settings: for inhibition at 10 µM: read-out: percent inhibition of stromelysin; for IC50: 60 minutes incubation
Description: (§1) Stromelysin was first activated by trypsin. This was done by preparing a reaction mixture in B-150 (B-150 consists of 150 mM NaCl, 20 mM Tris at pH 7.8 and 0.02% sodium azide) containing a final concentration of 4 μg/mL trypsin, 1.48 μg/mL of stromelysin, and 3.15 mM CaCl2. The reaction was incubated for 30 minutes at 37° C. and then quenched by adding soybean trypsin inhibitor to a final concentration of 43.6 μg/mL. ZnCl2 was added to the reaction mixture for a total concentration of 0.24 μM.
(§2) Following preparation of the solution of activated stromelysin, assay solutions were prepared for each inhibitor being tested. A control was also prepared. First, […] of activated stromelysin (about 45 μL from the solution of activated stromelysin) were aliquotted per assay tube. A 2.5 mM solution in 100% dimethyl sulfoxide (DMSO) was prepared for each inhibitor being tested and 1 μL from each inhibitor solution was added to one of the assay tubes. In addition, 1 μL of 100% DMSO was added to the control assay tube. All assay tubes were then pre-incubated for 5 minutes.
(§3) 5 μL of a previously prepared 50 μM solution of substrate in 15% DMSO were added to each assay tube. The substrate was a methoxycumarin developed by Knight et al. FEBS Lett. 296:263-66 (1992). The tubes were then incubated for 60 minutes, at which time the reaction was stopped with the addition of 750 μL of 0.1M NaAc pH 4.0 buffer.
(§4) Substrate hydrolysis was assessed by fluorescence using a slit width of 10:10, excitation at 328 nm and emission at 393 nm. The results of these assays are listed in Table I as percent inhibition at 10 μM of the bile acid provided compound tested or as the IC50.

[2] = tested on: bovine cartilage explants; experiment: Bovine Cartilage Explant Assay (35S-GAG release, rhIL-1α stimulated; tissue culture); format: cell-based; settings: Bos taurus, read-out: percent inhibition of extracellular matrix damage, Tissue Culture
Text: A tissue culture assay was used to measure the ability of the compounds of the present invention to slow the degradation of the extracellular matrix by metalloproteinases. This assay measured the amount of ^35 S-glycosaminoglycan (^35 S-GAG) released from labeled bovine cartilage explants.
Knee joints from a 1 to 3 week old calf were obtained immediately after sacrifice from the Abattoir and then transported on ice. The intact joints were washed well with tap water and soaked in 50% (v/v) Povidine iodine solution, obtained from Burre National, Inc., Baltimore, Md. All subsequent steps were performed in a laminar flow tissue culture hood using standard sterile technique. The joint was immobilized in a shank holder and the joint capsule was cut open to expose the articular cartilage. Cartilage explant plugs, approximately 15 mg wet weight, were removed from the flat articulating surfaces in the lower-most region of the knee joint using a sterile steel cork-borer and collected in a 250 mL roller bottle containing about 100 mL fresh Delbecco's minimum essential medium (DMEM), obtained from Gibco BRC, Life Technologies, Gaithersburg, Md., containing 4.5 g/1 (D)-glucose and (L)-glutamine, without sodium pyruvate. The fresh media also contained enough Hepes buffer and sodium bicarbonate such that the pH was about 7.4. The media was then further supplemented just before use with 100 units Penicillin, 100 μg Streptomycin, and 50 μg (L)-ascorbic acid per mL of medium.
Once collected, the explant plugs were washed four times with 50 mL fresh DMEM. The plugs were then placed in the incubator for a minimum of 1 hour to equilibrate, before proceeding to make disks from the articulating surface of each plug. A 1 mm thick disk was sliced from individual plugs from the end that was the articulating surface of the joint. The plug was held steady in the sterile template (4 mm diameter×1.5 mm deep) using sterile forceps. A scalpel blade was used to carefully slice off the disk. Only the superficial articulating surface responded well in culture.
Individual disks obtained were transferred to a tissue culture flask containing about 100 mL fresh media. The flask containing the disks was placed in an incubator at 37° C. (with 5% CO2, 95% air) and allowed to equilibrate overnight and at least one additional day before labeling. When ready to label, the old media was replaced with 50 mL fresh media containing about 500 μCi ^35 S-Sodium Sulfate. The plugs were labeled in bulk for about 48 hours. The next morning, the "hot" media was removed and replaced with fresh "cold" media. The disks were again allowed to equilibrate overnight before being used for actual experiments.
The media in which the disks were stored was changed immediately prior to performing the assay. The disks were then returned to the incubator until the test media and the two control media had been prepared. The test media consisted of a bile acid or bile acid derivative (50 μM) being tested for its ability to inhibit extracellular matrix degradation and concomitant recombinant human Interleukin rhIL-1α (5 ng/mL) in fresh DMEM solution. The control media were identical to the test media, except that the first control media lacked rhIL-1α and the second control media lacked an inhibitor, i.e. a bile acid or bile acid derivative. 250 μL of each of the test and control media were transferred to separate 96-well TC plates. Flamed forceps were used to transfer a disk from the incubator to each 96-well TC plates that had been filled with either the test media or one of the two control media.
The TC plates were then placed in the incubator and cultured for 3-4 days (initial incubation with rhIL-1α alpha takes at least 3 days to stimulate endogenous metalloproteinases). A 50 μL aliquot of media from each TC plate was saved and counted. The rest of the media was removed with a suction device.
The cartilage disks from each TC plate were also saved for counting. […]

[3] = tested on: collagenase; experiment: Assay of Collagenase Inhibition Activity; format: biochemical; settings: at 10 μM of compound; 45 minutes at 37° C.
Description: as §1, §2, §3, §4
The assay procedure for collagenase was the same as described in Example 13 for stromelysin except that the trypsin activation was performed for 45 minutes. In addition, the incubation of the assay tubes at 37° C. was only for 45 minutes, and the final enzyme concentration is 6 nm. The results of these assays are provided in Table I as percent inhibition at 10 μM of the compound tested.

[4] = at 50 μM, rhIL-1α 5 ng/mL, 3-4 days

Chain of stromelysin (P08254 100-477): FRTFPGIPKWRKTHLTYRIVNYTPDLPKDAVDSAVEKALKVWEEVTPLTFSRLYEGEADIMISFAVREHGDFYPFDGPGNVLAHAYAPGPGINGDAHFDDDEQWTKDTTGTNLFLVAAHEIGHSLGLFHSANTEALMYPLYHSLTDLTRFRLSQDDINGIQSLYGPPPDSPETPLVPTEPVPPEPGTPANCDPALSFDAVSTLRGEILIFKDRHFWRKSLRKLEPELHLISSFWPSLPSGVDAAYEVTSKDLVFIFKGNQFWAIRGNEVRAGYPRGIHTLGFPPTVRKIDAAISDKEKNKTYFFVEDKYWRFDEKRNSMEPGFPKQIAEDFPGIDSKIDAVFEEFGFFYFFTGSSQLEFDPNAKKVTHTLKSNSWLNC

SMILES	inhibition at 10 µM [1] [%]	inhibition at 50 µM [2] [%]	percent inhibition of collagenase [3] [%]	IC50 [1] [µM]	inhibition at 50 µM [2, 4] [%]	inhibition at 10 µM ([1]; at 10 μM of compound) [%]
C[C@H](CCC(=O)NCCC[N+](C)(C)CCCS(=O)(=O)[O-])[C@H]1CC[C@H]2[C@@H]3[C@H](O)C[C@@H]4C[C@H](O)CC[C@]4(C)[C@H]3C[C@H](O)[C@]12C [Compound 8, 3-[(3-cholamidopropyl)dimethylammonio)-1-propanesulfonate, reference compound]	26	-120	22	–	–	–
CC(C)C[C@H](NC(=O)CC[C@@H](C)[C@H]1CC[C@H]2[C@@H]3[C@H](O)C[C@@H]4C[C@H](O)CC[C@]4(C)[C@H]3CC[C@]12C)C(=O)NO [Compound 10, Chenodeoxycholyl-(L)-Leucine Hydroxamic Acid]	–	–	8	5	85	–
C[C@H](CCC(=O)N[C@@H](Cc1ccccc1)C(=O)NC1CCSC1=O)[C@H]1CC[C@H]2[C@@H]3CC[C@@H]4C[C@H](O)CC[C@]4(C)[C@H]3CC[C@]12C (stereo partly drawn) [Compound 20, Lithocholyl-Phenylalanylhomocysteine Thiolactone]	–	–	57	–	-13	57
C[C@H](CCC(=O)N[C@@H](Cc1ccccc1)C(=O)NO)[C@H]1CC[C@H]2[C@@H]3[C@H](O)C[C@@H]4C[C@H](O)CC[C@]4(C)[C@H]3CC[C@]12C [Compound 16, Chenodeoxycholyl-(L)-Phenylalanine Hydroxamic Acid]	–	–	38	–	94	80
C[C@H](CCC(=O)O)[C@H]1CC[C@H]2[C@@H]3CC[C@@H]4C[C@H](O)CC[C@]4(C)[C@H]3CC[C@]12C [Compound 1, Lithocholic acid, reference compound]	–	–	27	38	68	–
C[C@H](CCC(=O)NO)[C@H]1CC[C@H]2[C@@H]3CC[C@@H]4C[C@H](O)CC[C@]4(C)[C@H]3CC[C@]12C [Compound 13, Lithocholylhydroxamic Acid]	–	–	35	–	44	56
CC(C)C[C@H](NC(=O)CC[C@@H](C)[C@H]1CC[C@H]2[C@@H]3CC[C@@H]4C[C@H](O)CC[C@]4(C)[C@H]3CC[C@]12C)C(=O)NO [Compound 9, Lithocholyl-(L)-Leucine Hydroxamic Acid]	–	–	27	1	84	–
C[C@H](CCC(=O)NOCc1ccccc1)[C@H]1CC[C@H]2[C@@H]3[C@H](O)C[C@@H]4C[C@H](O)CC[C@]4(C)[C@H]3CC[C@]12C [Compound 12, Chenodeoxycholyl-O-Benzylhyroxamate]	–	–	21	–	6	5
C[C@H](CCC(=O)N[C@@H](Cc1ccccc1)C(=O)NO)[C@H]1CC[C@H]2[C@@H]3CC[C@@H]4C[C@H](O)CC[C@]4(C)[C@H]3CC[C@]12C [Compound 15, Lithocholyl-(L)-Phenylalanine Hydroxamic Acid]	–	–	58	–	54	85
CCOC(=O)[C@H](CS)NC(=O)[C@H](Cc1ccccc1)NC(=O)CC[C@@H](C)[C@H]1CC[C@H]2[C@@H]3CC[C@@H]4C[C@H](O)CC[C@]4(C)[C@H]3CC[C@]12C [Compound 19, Lithocholyl-(L)-Phenylalanyl-(L)-Cysteine Ethyl Ester]	–	–	33	2	32	–
